The target of this assay is aldose reductase (AR) (Capra hircus, UniProt A0A452EAQ3). Put plainly: NADPH oxidation at […] nm with xylose as substrate. Type of assay: cell-based. As to conditions: read-out: % inhibition at 4.5 μg/ml.

For the compound `O=c1c(O)c(-c2ccc(O)c(O)c2)oc2cc(O)cc(O)c12` [quercetin], the inhibition at 4.5 µg/mL is 64.6%.

The values are drawn from publication PMC5314825 (Journal of Pharmacy & Bioallied Sciences, 2016).
